Laboratory results as given in ChEMBL document CHEMBL3885881, “DrugMatrix”.

Organism: Rattus norvegicus
Assay: DrugMatrix - Regimen: Daily Repeat
Format: toxicity, organism-based, Sprague-Dawley
Parameters: regimen Daily Repeat, gender Male, age 6-8 weeks
Conditions: in vivo, po, route oral GAVAGE, […]; for ABSOLUTE BASOPHIL / ABSOLUTE EOSINOPHIL / ABSOLUTE LYMPHOCYTE / ABSOLUTE MONOCYTE / ABSOLUTE SEGMENTED NEUTROPHIL / BASOPHIL / EOSINOPHIL / ERYTHROCYTE COUNT / HEMATOCRIT / HEMOGLOBIN / LEUKOCYTE COUNT / LYMPHOCYTE / MEAN CORPUSCULAR HEMOGLOBIN / MEAN CORPUSCULAR HEMOGLOBIN CONCENTRATION / MEAN CORPUSCULAR VOLUME / MONOCYTE / NEUTROPHIL / NUCLEATED RED BLOOD CELLS / PLATELET COUNT: tissue Blood; for ALANINE AMINOTRANSFERASE / ALBUMIN / ALKALINE PHOSPHATASE / ASPARTATE AMINOTRANSFERASE / BLOOD UREA NITROGEN / CARBON DIOXIDE / CHLORIDE / CHOLESTEROL / CREATINE PHOSPHOKINASE / CREATININE / GLUCOSE / LACTATE DEHYDROGENASE / LIPASE / PHOSPHORUS / POTASSIUM / SODIUM / TOTAL BILIRUBIN / TOTAL PROTEIN / URIC ACID: tissue Plasma
[1] = 0 mg/kg, 72 h, dose level Control, time 3 day
[2] = 0 mg/kg, 120 h, dose level Control, time 5 day
[3] = 12 mg/kg, 72 h, dose level Low, time 3 day

## CO[C@H]1/C=C/O[C@@]2(C)Oc3c(C)c(O)c4c(O)c(c(/C=N/N5CCN(C6CCCC6)CC5)c(O)c4c3C2=O)NC(=O)/C(C)=C\C=C\[C@H](C)[C@H](O)[C@@H](C)[C@@H](O)[C@@H](C)[C@H](OC(C)=O)[C@@H]1C [RIFAPENTINE]
[1]
  ABSOLUTE BASOPHIL: 0 CELLS/uL
  ABSOLUTE EOSINOPHIL: 179.67 CELLS/uL
  ABSOLUTE LYMPHOCYTE: 11440.17 CELLS/uL
  ABSOLUTE MONOCYTE: 128.83 CELLS/uL
  ABSOLUTE SEGMENTED NEUTROPHIL: 1051.33 CELLS/uL
  BASOPHIL: 0%
  EOSINOPHIL: 1.33%
  ERYTHROCYTE COUNT: 5.53 x10E6/uL
  HEMATOCRIT: 34.75%
  HEMOGLOBIN: 12.88 G/DL
  LEUKOCYTE COUNT: 12.8 x10E3/uL
  LYMPHOCYTE: 89.5%
  MEAN CORPUSCULAR HEMOGLOBIN: 23.38 pg
  MEAN CORPUSCULAR HEMOGLOBIN CONCENTRATION: 37.12 G/DL
  MEAN CORPUSCULAR VOLUME: 62.88 fL
  MONOCYTE: 1%
  NEUTROPHIL: 8.17%
  NUCLEATED RED BLOOD CELLS: 0 /100WBC
  PLATELET COUNT: 1292 x10E3/uL
  ALANINE AMINOTRANSFERASE: 58.67 u/L
  ALBUMIN: 4.25 G/DL
  ALKALINE PHOSPHATASE: 437.83 u/L
  ASPARTATE AMINOTRANSFERASE: 85.17 u/L
  BLOOD UREA NITROGEN: 14.17 mg/dL
  CARBON DIOXIDE: 28.67 mmol/L
  CHLORIDE: 102.17 MEQ/L
  CHOLESTEROL: 68.5 mg/dL
  CREATINE PHOSPHOKINASE: 271.83 u/L
  CREATININE: 0.2 mg/dL
  GLUCOSE: 156.67 mg/dL
  LACTATE DEHYDROGENASE: 112.33 u/L
  LIPASE: 9.33 u/L
  PHOSPHORUS: 11.1 mg/dL
  POTASSIUM: 6.46 MEQ/L
  SODIUM: 144.37 MEQ/L
  TOTAL BILIRUBIN: 0.23 mg/dL
  TOTAL PROTEIN: 5.8 G/DL
  URIC ACID: 1.55 mg/dL
[2]
  ABSOLUTE BASOPHIL: 0 CELLS/uL
  ABSOLUTE EOSINOPHIL: 87 CELLS/uL
  ABSOLUTE LYMPHOCYTE: 14743.5 CELLS/uL
  ABSOLUTE MONOCYTE: 187 CELLS/uL
  ABSOLUTE SEGMENTED NEUTROPHIL: 1499.17 CELLS/uL
  BASOPHIL: 0%
  EOSINOPHIL: 0.5%
  ERYTHROCYTE COUNT: 5.84 x10E6/uL
  HEMATOCRIT: 36.3%
  HEMOGLOBIN: 13.55 G/DL
  LEUKOCYTE COUNT: 16.52 x10E3/uL
  LYMPHOCYTE: 89.5%
  MEAN CORPUSCULAR HEMOGLOBIN: 23.25 pg
  MEAN CORPUSCULAR HEMOGLOBIN CONCENTRATION: 37.35 G/DL
  MEAN CORPUSCULAR VOLUME: 62.27 fL
  MONOCYTE: 1.17%
  NEUTROPHIL: 8.83%
  NUCLEATED RED BLOOD CELLS: 0.17 /100WBC
  PLATELET COUNT: 1233.5 x10E3/uL
  ALANINE AMINOTRANSFERASE: 62.5 u/L
  ALBUMIN: 4.17 G/DL
  ALKALINE PHOSPHATASE: 464.33 u/L
  ASPARTATE AMINOTRANSFERASE: 99.67 u/L
  BLOOD UREA NITROGEN: 14.33 mg/dL
  CARBON DIOXIDE: 26 mmol/L
  CHLORIDE: 102.33 MEQ/L
  CHOLESTEROL: 60.67 mg/dL
  CREATINE PHOSPHOKINASE: 402.5 u/L
  CREATININE: 0.22 mg/dL
  GLUCOSE: 173.5 mg/dL
  LACTATE DEHYDROGENASE: 518.17 u/L
  LIPASE: 10.83 u/L
  PHOSPHORUS: 11.4 mg/dL
  POTASSIUM: 6.13 MEQ/L
  SODIUM: 142.63 MEQ/L
  TOTAL BILIRUBIN: 0.17 mg/dL
  TOTAL PROTEIN: 6.1 G/DL
  URIC ACID: 1.97 mg/dL
[3]
  ABSOLUTE BASOPHIL: 0 CELLS/uL
  ABSOLUTE EOSINOPHIL: 44.67 CELLS/uL
  ABSOLUTE LYMPHOCYTE: 14914 CELLS/uL
  ABSOLUTE MONOCYTE: 225.33 CELLS/uL
  ABSOLUTE SEGMENTED NEUTROPHIL: 1216 CELLS/uL
  BASOPHIL: 0%
  EOSINOPHIL: 0.33%
  ERYTHROCYTE COUNT: 5.83 x10E6/uL
  HEMATOCRIT: 34.83%
  HEMOGLOBIN: 12.73 G/DL
  LEUKOCYTE COUNT: 16.4 x10E3/uL
  LYMPHOCYTE: 91%
  MEAN CORPUSCULAR HEMOGLOBIN: 21.83 pg
  MEAN CORPUSCULAR HEMOGLOBIN CONCENTRATION: 36.57 G/DL
  MEAN CORPUSCULAR VOLUME: 59.7 fL
  MONOCYTE: 1.33%
  NEUTROPHIL: 7.33%
  NUCLEATED RED BLOOD CELLS: 0 /100WBC
  PLATELET COUNT: 1540.67 x10E3/uL
  ALANINE AMINOTRANSFERASE: 75 u/L
  ALBUMIN: 4.13 G/DL
  ALKALINE PHOSPHATASE: 400.33 u/L
  ASPARTATE AMINOTRANSFERASE: 93.33 u/L
  BLOOD UREA NITROGEN: 15 mg/dL
  CARBON DIOXIDE: 28 mmol/L
  CHLORIDE: 102 MEQ/L
  CHOLESTEROL: 69.33 mg/dL
  CREATINE PHOSPHOKINASE: 485.67 u/L
  CREATININE: 0.15 mg/dL
  GLUCOSE: 166.67 mg/dL
  LACTATE DEHYDROGENASE: 138 u/L
  LIPASE: 10 u/L
  PHOSPHORUS: 11.53 mg/dL
  POTASSIUM: 6.47 MEQ/L
  SODIUM: 141.97 MEQ/L
  TOTAL BILIRUBIN: 0.23 mg/dL
  TOTAL PROTEIN: 5.43 G/DL
  URIC ACID: 1.6 mg/dL
